Test results from patent publication US20020160932A1, “Uncompetitive inhibitors of helicase-primase” (priority 2000, published 2002).
Like-named read-outs stand apart in the source and are kept apart here.

What was measured:
[1] = tested on: Active substance-resistant HSV-1 (F) mutants; experiment: microbe, parasite or virus in culture; settings: Human alphaherpesvirus 1, read-out: IC50 Active substance-resistant HSV-1 (F) mutants
HSV-1 Walkie = experiment: in vivo lethal challenge model, HSV-1 Walki; settings: for ED50: Human alphaherpesvirus 1, in Mus musculus, po, 120 h, read-out: in vivo lethal challenge model HSV-1 Walkie ED50; for in vivo lethal challenge model HSV-1 Walkie ED50: p.o., mice, 3 times a day for 5 days, survival
Experimental: (§1) 6-week old female mice, strain BALB/cABom, were purchased from a commercial breeder (Bomholtgard Breeding and Research Centre Ltd).
(§2) The animals were anaesthetized with diethyl ether (Merck) in a sealed glass vessel. 50 μl of a dilution of the virus stock (dose for infection 5×10^4 Pfu) were introduced with an Eppendorf pippette into the nose of the anaesthetized animals. This dose leads to death of 90-100% of the animals due to a generalized infection with prominent respiratory and central nervous symptoms after on average between 5 and 8 days.
(§3) 6 hours after the infection, the animals were treated with doses of 0.1-100 mg/kg of body weight 3 times day at 7.00 h, 14.00 h and 19 h over a period of 5 days. The substances were dissolved in DMSO and resuspended in Tylose/PBS (Hoechst) (final concentration 1.5% DMSO, 0.5% Tylose in PBS).
(§4) After the last administration, the animals were observed further and the times of death were recorded.

[2] = tested on: Acyclovir-resistant HSV-1 (F) mutants; experiment: microbe, parasite or virus in culture; format: cell-based, herpes simplex virus 1
Wild-type HSV-1 (F) = experiment: in vitro viral replication assay, wild-type HSV-1 (F); format: cell-based, herpes simplex virus 1; settings: for SI Wild-type HSV-1 (F): selectivity index SI=(CC50/IC50);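 for SI Wild-type HSV-1 (F): ratio of CC50 to antiviral IC50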
HSV-2 MS = experiment: in vivo lethal challenge model, HSV-2 MS; settings: for ED50: Human alphaherpesvirus 2, in Mus musculus, po, 120 h, read-out: in vivo lethal challenge model HSV-2 MS ED50, p.o., mice, 3 times a day for 5 days, survival; for in vivo lethal challenge model HSV-2 MS ED50: p.o., mice, 3 times a day for 5 days, survival
Experimental: as §1, §2, §3, §4

HSV-2 G = experiment: in vitro viral replication assay, human HSV-2 G; format: cell-based, herpes simplex virus 2; settings: for IC50: in vitro viral replication assay; for SI human HSV-2 G: selectivity index SI=(CC50/IC50);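 for SI human HSV-2 G: ratio of CC50 to antiviral IC50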
[3] = tested on: clinical isolates (39 HSV-1 and 19 HSV-2 isolates); experiment: activity on clinical isolates; format: cell-based, herpes simplex virus; settings: 39 HSV-1 and 19 HSV-2 isolates tested
PRV = experiment: cells; format: cell-based, porcine (PRV); settings: for IC50: read-out: IC50 porcine PRV
BHV = experiment: in vitro viral replication assay, bovine BHV; format: cell-based; settings: for IC50: in vitro viral replication assay; for SI bovine BHV: selectivity index SI=(CC50/IC50);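 for SI bovine BHV: ratio of CC50 to antiviral IC50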
[4] = tested on: Active substance-resistant HSV-1 (F) mutants; settings: read-out: IC50 Active substance-resistant HSV-1 (F) mutants
[5] = target: HSV-1 helicase-primase heterodimer enzyme complex (UL5-UL52-6xHis) (Human herpesvirus 1, UniProt P10189+P10236); experiment: HSV-1 DNA-dependent ATPase assay; settings: for type of ATPase inhibition (mechanism): wild-type HSV-1 (F) helicase-primase
Sequence of HSV-1 helicase-primase heterodimer enzyme complex (UL5-UL52-6xHis) (P10236 whole entry): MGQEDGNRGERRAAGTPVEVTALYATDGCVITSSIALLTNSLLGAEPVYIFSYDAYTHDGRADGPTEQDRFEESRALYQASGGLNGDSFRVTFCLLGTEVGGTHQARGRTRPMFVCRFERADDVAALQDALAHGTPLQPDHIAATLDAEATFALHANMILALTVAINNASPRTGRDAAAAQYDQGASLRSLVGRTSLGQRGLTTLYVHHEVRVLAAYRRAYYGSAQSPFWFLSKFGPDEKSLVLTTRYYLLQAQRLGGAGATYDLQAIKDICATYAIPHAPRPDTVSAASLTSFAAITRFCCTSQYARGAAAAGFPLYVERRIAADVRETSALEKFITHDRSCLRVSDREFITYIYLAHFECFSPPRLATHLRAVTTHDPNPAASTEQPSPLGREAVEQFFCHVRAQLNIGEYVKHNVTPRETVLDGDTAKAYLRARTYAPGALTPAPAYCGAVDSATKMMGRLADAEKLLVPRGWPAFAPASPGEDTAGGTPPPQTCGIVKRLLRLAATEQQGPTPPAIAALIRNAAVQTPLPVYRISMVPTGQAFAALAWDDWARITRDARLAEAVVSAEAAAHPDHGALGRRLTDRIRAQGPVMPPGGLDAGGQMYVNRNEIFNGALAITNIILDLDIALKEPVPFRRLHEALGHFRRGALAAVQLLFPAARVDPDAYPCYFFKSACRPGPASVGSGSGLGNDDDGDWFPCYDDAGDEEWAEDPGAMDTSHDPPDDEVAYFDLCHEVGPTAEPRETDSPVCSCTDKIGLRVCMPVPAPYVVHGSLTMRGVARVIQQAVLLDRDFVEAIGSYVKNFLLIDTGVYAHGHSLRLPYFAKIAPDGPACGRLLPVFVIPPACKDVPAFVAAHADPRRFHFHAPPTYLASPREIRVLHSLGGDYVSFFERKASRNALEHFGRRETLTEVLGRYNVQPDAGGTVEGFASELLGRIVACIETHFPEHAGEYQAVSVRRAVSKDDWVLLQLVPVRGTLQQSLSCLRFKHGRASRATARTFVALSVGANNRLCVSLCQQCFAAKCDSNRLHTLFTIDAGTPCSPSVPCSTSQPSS
Sequence of HSV-1 helicase-primase heterodimer enzyme complex (UL5-UL52-6xHis) (P10189 whole entry): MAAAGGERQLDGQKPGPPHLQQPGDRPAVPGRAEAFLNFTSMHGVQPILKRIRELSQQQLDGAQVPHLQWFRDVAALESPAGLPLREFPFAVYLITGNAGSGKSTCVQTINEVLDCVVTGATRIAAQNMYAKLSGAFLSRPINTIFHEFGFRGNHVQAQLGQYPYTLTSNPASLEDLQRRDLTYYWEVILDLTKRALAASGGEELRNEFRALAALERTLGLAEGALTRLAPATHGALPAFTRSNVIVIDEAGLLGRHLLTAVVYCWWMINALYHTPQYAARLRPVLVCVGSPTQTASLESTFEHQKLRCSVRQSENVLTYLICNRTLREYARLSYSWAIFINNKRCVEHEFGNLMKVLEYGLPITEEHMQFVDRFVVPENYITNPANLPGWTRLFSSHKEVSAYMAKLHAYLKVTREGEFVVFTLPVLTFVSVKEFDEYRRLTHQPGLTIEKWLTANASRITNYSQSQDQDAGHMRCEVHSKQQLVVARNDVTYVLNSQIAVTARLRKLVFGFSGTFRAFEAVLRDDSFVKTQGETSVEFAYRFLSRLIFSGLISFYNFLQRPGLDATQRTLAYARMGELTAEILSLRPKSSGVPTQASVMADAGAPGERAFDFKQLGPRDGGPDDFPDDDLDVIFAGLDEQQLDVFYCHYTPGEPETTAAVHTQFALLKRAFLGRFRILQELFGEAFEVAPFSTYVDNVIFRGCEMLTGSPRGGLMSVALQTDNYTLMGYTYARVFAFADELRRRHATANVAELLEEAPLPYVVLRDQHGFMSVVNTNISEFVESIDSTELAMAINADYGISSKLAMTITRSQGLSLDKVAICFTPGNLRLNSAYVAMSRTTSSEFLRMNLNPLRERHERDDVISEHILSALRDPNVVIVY
Text: HSV-1 DNA-dependent ATPase assay (this in vitro assay permits testing for inhibition of the HSV-1 helicase-primase).
The HSV-1 helicase-primase heterodimer enzyme complex was [lacuna] with the aid of the recombinant baculovirus expression system in doubly infected Sf9 (Spodoptera frugiperda) cells. One recombinant baculovirus codes for the UL5 helicase gene and the second virus codes for the manipulated UL52-6×His primase gene.
The genes were amplified from the HSV-1 (F) genome by PCR (American Tissue Culture Collection ATCC VR-733) and cloned into the baculovirus (UL5→pFASTBAC1; UL52→pFASTHTb) as described in detail in the instruction manual for BAC-TO-BAC Baculovirus Expression Systems, Life-Technologies.
The purified heterodimeric helicase-primase complex (200 ng) was incubated with 1 μg of DNA (Sigma D3287 or D8681) in 20 mM HEPES (pH 7.6; 4-(2-hydroxyethyl)-1-piperazineethanesulphonic acid), 5 mM MgCl2, 0.2-5 mM ATP, 100 μg of BSA (bovine serum albumin) per ml, 10% glycerol, 1 mM DTT (DL-dithiothreitol) and, where appropriate, inhibitor in the appropriate concentration at 37° C. for 60 min.
The inhibition of the DNA-dependent ATPase activity was calculated from the change in the absorption in the presence and absence of inhibitor.
The Ki values were calculated with the assistance of the Sigma Plot software 4.0 and the method of nonlinear curve regression.
For this purpose, the ATPase activity of the helicase-primase heterodimer (detection through formation of inorganic phosphate (Pi)) was measured in the presence of saturated DNA concentrations and varying ATP and inhibitor concentrations, as explained in the ATPase assay section.

[6] = in vitro viral replication assay, read-out: IC50 Wild-type HSV-1 (F)

In the case of `Nc1nc2c(ncn2COCCO)c(=O)[nH]1` [Acyclovir, acyclovir, reference compound], the IC50 [1] is reported as 1000 nM, the ED50 (HSV-1 Walkie) is reported as 22 mg/kg and the IC50 ([2]; Human alphaherpesvirus 1, read-out: IC50 Acyclovir-resistant HSV-1 (F) mutants) is reported as 125 µM. The IC50 (Wild-type HSV-1 (F); Human alphaherpesvirus 1, in vitro viral replication assay, read-out: IC50 Wild-type HSV-1 (F)) was 1000 nM, the “SI Wild-type HSV-1 (F)” value (Wild-type HSV-1 (F)) was 250 and the ED50 (HSV-2 MS) was 16 mg/kg. For the same compound, the IC50 (HSV-2 G; Human alphaherpesvirus 2) was 4000 nM and the “SI human HSV-2 G” value (HSV-2 G) was 125.
`Cc1nc(N(C)C(=O)Nc2ccc(N3CCOCC3)cc2)sc1S(=O)(=O)N(C)C` [Example 1] was tested, and the “activity on clinical isolates” value [3] was “active on all the clinical isolates tested to date”, the “in vivo lethal challenge model HSV-1 Walkie ED50” value (HSV-1 Walkie) was 60 mg/kg and the “SI porcine PRV” value (PRV) was greater than 63. The IC50 (PRV) was 4 µM, the IC50 (BHV) was 1500 nM and the “SI bovine BHV” value (BHV) was greater than 167. The IC50 ([2]; in vitro viral replication assay, read-out: IC50 Acyclovir-resistant HSV-1 (F) mutants) was 0.75 µM, the IC50 (Wild-type HSV-1 (F); [6]) was 750 nM and the “SI Wild-type HSV-1 (F)” value (Wild-type HSV-1 (F)) was 350. For the same compound, the IC50 ([4]; Mutant 1 (UL5 M355V, UL5 V6621, UL52 A897T)) was greater than 250 µM, the “in vivo lethal challenge model HSV-2 MS ED50” value (HSV-2 MS) was “weak” and the IC50 (HSV-2 G) was 1500 nM. The “SI human HSV-2 G” value (HSV-2 G) was 167.
With `CNS(=O)(=O)c1sc(N(C)C(=O)Nc2ccc(N3CCOCC3)cc2)nc1C` [Example 2] the “in vivo lethal challenge model HSV-1 Walkie ED50” value (HSV-1 Walkie) was 26 mg/kg, the IC50 (Wild-type HSV-1 (F); [6]) was 500 nM and the “SI Wild-type HSV-1 (F)” value (Wild-type HSV-1 (F)) was 400. For the same compound, the “in vivo lethal challenge model HSV-2 MS ED50” value (HSV-2 MS) was “weak”, the IC50 (HSV-2 G) was 1500 nM and the “SI human HSV-2 G” value (HSV-2 G) was 200.
`CNS(=O)(=O)c1sc(N(C)C(=O)Nc2ccc(-c3ccccc3)cc2)nc1C` [Example 3] was tested, and the “in vivo lethal challenge model HSV-1 Walkie ED50” value (HSV-1 Walkie) was 8 mg/kg, the IC50 (Wild-type HSV-1 (F); [6]) was 1 nM and the “SI Wild-type HSV-1 (F)” value (Wild-type HSV-1 (F)) was 3E+05. For the same compound, the IC50 ([4]; mutant not named) was greater than 250 µM, the “in vivo lethal challenge model HSV-2 MS ED50” value (HSV-2 MS) was 11 mg/kg and the IC50 (HSV-2 G) was 5 nM. For the same compound, the “SI human HSV-2 G” value (HSV-2 G) was 25000.
In the case of `CNS(=O)(=O)c1sc(N(C)C(=O)Cc2ccc(-c3ccccc3)cc2)nc1C` [Example 4], the “activity on clinical isolates” value [3] is reported as “active on all the clinical isolates tested to date”, the “in vivo lethal challenge model HSV-1 Walkie ED50” value (HSV-1 Walkie) is reported as 1 mg/kg and the “SI porcine PRV” value (PRV) is reported as 66. The IC50 (PRV) was 3 µM, the IC50 (BHV) was 150 nM and the “SI bovine BHV” value (BHV) was 400. For the same compound, the IC50 (Wild-type HSV-1 (F); [6]) was 0.5 nM, the “SI Wild-type HSV-1 (F)” value (Wild-type HSV-1 (F)) was 1E+05 and the IC50 ([4]; Mutant 2 (UL5 K356N)) was greater than 250 µM. The IC50 ([4]; Mutant 6 (UL52 A897T)) was greater than 1 µM, the “in vivo lethal challenge model HSV-2 MS ED50” value (HSV-2 MS) was 3 mg/kg and the IC50 (HSV-2 G) was 50 nM. For the same compound, the “SI human HSV-2 G” value (HSV-2 G) was 5000.
For `Cc1nc(N(C)C(=O)Cc2ccc(-c3ccccc3)cc2)sc1S(N)(=O)=O` [Example 5], the “activity on clinical isolates” value [3] was “active on all the clinical isolates tested to date”, the “in vivo lethal challenge model HSV-1 Walkie ED50” value (HSV-1 Walkie) was 0.5 mg/kg and the “SI porcine PRV” value (PRV) was 13. The IC50 (PRV) was 8 µM, the IC50 (BHV) was 50 nM and the “SI bovine BHV” value (BHV) was 5000. For the same compound, the “in vivo lethal challenge model HSV-2 MS ED50” value (HSV-2 MS) was 1.1 mg/kg, the IC50 (HSV-2 G) was 5 nM and the “SI human HSV-2 G” value (HSV-2 G) was 50000.
`Cc1nc(N(C)C(=O)Cc2ccc(-c3cc(F)ccc3F)cc2)sc1S(N)(=O)=O` [Example 6] was tested, and the “activity on clinical isolates” value [3] was “active on all the clinical isolates tested to date”, the “in vivo lethal challenge model HSV-1 Walkie ED50” value (HSV-1 Walkie) was greater than 0.5 mg/kg and the “SI porcine PRV” value (PRV) was 133. The IC50 (PRV) was 1.5 µM, the IC50 (BHV) was 30 nM and the “SI bovine BHV” value (BHV) was 6660. For the same compound, the IC50 ([4]; M1 + M2 (UL5 G352V)) was greater than 125 µM, the “in vivo lethal challenge model HSV-2 MS ED50” value (HSV-2 MS) was 0.5 mg/kg and the “Concentration of liberated inorganic phosphate” value (from here on “Concentration”) ([5]; inhibitor 0.00128 μM, ATP 0.3 mM) was 0.066 mM. The “Concentration” value ([5]; inhibitor 0.00128 μM, ATP 0.4 mM) was 0.067 mM, the “Concentration” value ([5]; inhibitor 0.00128 μM, ATP 0.6 mM) was 0.085 mM and the “Concentration” value ([5]; inhibitor 0.00128 μM, ATP 0.8 mM) was 0.099 mM. For the same compound, the “Concentration” value ([5]; inhibitor 0.00128 μM, ATP 1 mM) was 0.108 mM, the “Concentration” value ([5]; inhibitor 0.00128 μM, ATP 3 mM) was 0.127 mM and the “Concentration” value ([5]; inhibitor 0.0064 μM, ATP 0.3 mM) was 0.040 mM. For the same compound, the “Concentration” value ([5]; inhibitor 0.0064 μM, ATP 0.4 mM) was 0.045 mM, the “Concentration” value ([5]; inhibitor 0.0064 μM, ATP 0.6 mM) was 0.062 mM and the “Concentration” value ([5]; inhibitor 0.0064 μM, ATP 0.8 mM) was 0.064 mM. The “Concentration” value ([5]; inhibitor 0.0064 μM, ATP 1 mM) was 0.071 mM, the “Concentration” value ([5]; inhibitor 0.0064 μM, ATP 3 mM) was 0.113 mM and the “Concentration” value ([5]; inhibitor 0.032 μM, ATP 0.3 mM) was 0.025 mM. For the same compound, the “Concentration” value ([5]; inhibitor 0.032 μM, ATP 0.4 mM) was 0.029 mM, the “Concentration” value ([5]; inhibitor 0.032 μM, ATP 0.6 mM) was 0.037 mM and the “Concentration” value ([5]; inhibitor 0.032 μM, ATP 0.8 mM) was 0.044 mM. The “Concentration” value ([5]; inhibitor 0.032 μM, ATP 1 mM) was 0.055 mM, the “Concentration” value ([5]; inhibitor 0.032 μM, ATP 3 mM) was 0.085 mM and the “Concentration” value ([5]; inhibitor 0.16 μM, ATP 0.3 mM) was 0.017 mM. The “Concentration” value ([5]; inhibitor 0.16 μM, ATP 0.4 mM) was 0.022 mM, the “Concentration” value ([5]; inhibitor 0.16 μM, ATP 0.6 mM) was 0.029 mM and the “Concentration” value ([5]; inhibitor 0.16 μM, ATP 0.8 mM) was 0.033 mM. For the same compound, the “Concentration” value ([5]; inhibitor 0.16 μM, ATP 1 mM) was 0.040 mM, the “Concentration” value ([5]; inhibitor 0.16 μM, ATP 3 mM) was 0.066 mM and the “Concentration” value ([5]; inhibitor 0.8 μM, ATP 0.3 mM) was 0.010 mM. For the same compound, the “Concentration” value ([5]; inhibitor 0.8 μM, ATP 0.4 mM) was 0.013 mM, the “Concentration” value ([5]; inhibitor 0.8 μM, ATP 0.6 mM) was 0.019 mM and the “Concentration” value ([5]; inhibitor 0.8 μM, ATP 0.8 mM) was 0.023 mM. The “Concentration” value ([5]; inhibitor 0.8 μM, ATP 1 mM) was 0.027 mM, the “Concentration” value ([5]; inhibitor 0.8 μM, ATP 3 mM) was 0.054 mM and the “Concentration” value ([5]; inhibitor 4 μM, ATP 0.3 mM) was 0.006 mM. The “Concentration” value ([5]; inhibitor 4 μM, ATP 0.4 mM) was 0.007 mM, the “Concentration” value ([5]; inhibitor 4 μM, ATP 0.6 mM) was 0.010 mM and the “Concentration” value ([5]; inhibitor 4 μM, ATP 0.8 mM) was 0.012 mM. The “Concentration” value ([5]; inhibitor 4 μM, ATP 1 mM) was 0.018 mM, the “Concentration” value ([5]; inhibitor 4 μM, ATP 3 mM) was 0.044 mM and the “Concentration” value ([5]; inhibitor 20 μM, ATP 0.3 mM) was 0.004 mM. The “Concentration” value ([5]; inhibitor 20 μM, ATP 0.4 mM) was 0.004 mM, the “Concentration” value ([5]; inhibitor 20 μM, ATP 0.6 mM) was 0.006 mM and the “Concentration” value ([5]; inhibitor 20 μM, ATP 0.8 mM) was 0.010 mM. The “Concentration” value ([5]; inhibitor 20 μM, ATP 1 mM) was 0.008 mM, the “Concentration” value ([5]; inhibitor 20 μM, ATP 3 mM) was 0.030 mM and the “Concentration” value ([5]; inhibitor 100 μM, ATP 0.3 mM) was 0.005 mM. The “Concentration” value ([5]; inhibitor 100 μM, ATP 0.4 mM) was 0.006 mM, the “Concentration” value ([5]; inhibitor 100 μM, ATP 0.6 mM) was 0.008 mM and the “Concentration” value ([5]; inhibitor 100 μM, ATP 0.8 mM) was 0.008 mM. The “Concentration” value ([5]; inhibitor 100 μM, ATP 1 mM) was 0.014 mM, the “Concentration” value ([5]; inhibitor 100 μM, ATP 3 mM) was 0.032 mM and the Ki ([5]; read-out: in vitro ATPase inhibition wild-type HSV-1 (F) Ki, nonlinear curve regression) was 7 nM. The “type of ATPase inhibition (mechanism)” value [5] was “un-”.
In the case of `Cc1nc(N(C)C(=O)Cc2ccc(-c3ccccn3)cc2)sc1S(N)(=O)=O` [Example 7], the “activity on clinical isolates” value [3] is reported as “active on all the clinical isolates tested to date”, the ED50 (HSV-1 Walkie) is reported as 0.5 mg/kg and the “SI porcine PRV” value (PRV) is reported as greater than 50. The IC50 (PRV; Sus scrofa) was 5 µM, the IC50 (BHV; Bos taurus) was 125 nM and the “SI bovine BHV” value (BHV) was 240. The IC50 (Wild-type HSV-1 (F); Human alphaherpesvirus 1, read-out: IC50 Wild-type HSV-1 (F)) was 20 nM, the “SI Wild-type HSV-1 (F)” value (Wild-type HSV-1 (F)) was 2500 and the ED50 (HSV-2 MS) was roughly 0.5 mg/kg. For the same compound, the IC50 (HSV-2 G; Human alphaherpesvirus 2) was 20 nM, the “SI human HSV-2 G” value (HSV-2 G) was 3000 and the Ki [5] was 30 nM. The “type of ATPase inhibition (mechanism)” value [5] was “uncom-”.
For `CC(C)[C@H](N)C(=O)OCCOCn1cnc2c(=O)[nH]c(N)nc21` [Valtrex, reference compound], the ED50 (HSV-1 Walkie) was 17 mg/kg and the ED50 (HSV-2 MS) was 14 mg/kg.
